Results as given in article PMC8125408, “Polyoxazolines with a Vicinally Double-Bioactivated Terminus for Biomacromolecular Affinity Assessment” (Sensors (Basel, Switzerland), 2021).
Like-named read-outs stand apart in the source and are kept apart here.

What was measured:
Concanavalin A (ConA) [1] = biological target: T1, Concanavalin A (ConA) (Canavalia ensiformis, UniProt P02866); details: PBS, 25 °C, four ConA concentrations 118 to […], no aff. = no affinity of the conjugate to the lectin could be determined
Experimental: SAW measurements were performed with apparatus from SAW Instruments GmbH, which included an autosampler and allowed for measuring of protein adsorption and KD value determination. Measurements were performed at 25 °C using PBS as a running buffer. For the immobilization of polymers containing a thioether group on the bare gold sensor chip surface 30 µL of polymers per lane (concentration: 10 µg·mL^−1 in PBS) were preincubated onto the sensor chip for 1 h with an external application mask. Remaining unspecific protein binding sites on the bare gold surface were saturated by the injection of 500 µM BSA. Purified recombinant ConA was used as an analyte at four concentrations, ranging from 118 to 944 nM. The flow rate for the acquisition of interaction data was set to 40 µL·min^−1 in all experiments. Association was measured for 300 s, then dissociation was initiated by perfusing the running buffer, and the dissociation phase was also monitored for 300 s. Regeneration of the chip surface was performed by injection of two 60 s pulses of 100 mM glycine (pH 2.5) at a flow rate of 100 µL·min^−1. Interaction data were analyzed using the FitMaster add-in (SAW Instruments GmbH) of Origin software version 8.5 (OriginLab Corporation), applying a simple Langmuir-type 1:1 interaction model. Association rate constant kon values and dissociation rates constant koff values were obtained by fitting data of individual experiments. Equilibrium binding KD values were deduced using the equation KD = koff/kon. […]
Following the preparation of the gold surface with the polymer conjugates and saturation with BSA, the main measurement can be performed by analyzing the binding affinity of the lectin to the functionalized surface. For this, a constant flow of a series of ConA dilutions with defined concentrations of ConA is injected on each channel and the phase change of surface acoustic waves, which are influenced by binding events, is monitored. […] After measuring four different ConA concentrations, the binding and dissociation curves are fitted and the KD value is calculated.

Concanavalin A (ConA) [2] = biological target: T1, Concanavalin A (ConA); details: HBS150T pH 7.4, 25 °C, ConA 118 to […], no aff. = no affinity could be determined
Experimental: Interactions between polymers and Concanavalin A (ConA) were measured by SPR using a […] ®4SPR system (Reichert Technologies). Measurements were performed at 25 °C using HBS150T (10 mM HEPES (pH 7.4), 150 mM NaCl, 3.4 mM EDTA, 0.005% (v/v) Tween 20) as running buffer. For the immobilization of polymers containing a thioether group on the bare gold sensor chip surface, the polymers were injected onto a sensor for 8 min at a flow rate of 10 µL/min to cause polymer coating to a final density of 1000 resonance units. Remaining unspecific protein binding sites on the bare gold surface were saturated by the injection of 500 µM BSA. Purified recombinant ConA was used as an analyte at four concentrations, ranging from 118 to 944 nM. The flowrate for the acquisition of interaction data was set to 25 µL·min^−1 in all experiments. Association was measured for 180 s, then dissociation was initiated by perfusing running buffer, and the dissociation phase was monitored for 300 s. Regeneration of the chip surface was performed by injecting two 60 s pulses of 100 mM glycine (pH 2.5) at a flow rate of 100 µL·min^−1. Interaction data were analyzed using the software TraceDrawer version 1.8.1 (Ridgeview Instruments AB, Uppsala, Sweden), applying a simple Langmuir-type 1:1 interaction model and using global fitting for the rate constants. Association rate constant kon values and dissociation rates constant koff values were obtained by fitting the data of individual experiments. Equilibrium binding KD values were deduced using the equation KD = koff/kon. All SPR experiments were performed in at least three independent experiments.
Preparing the samples is identical to SAW measurements. The SPR measuring channels were coated with polymer solution, and unoccupied gold surface was saturated with BSA.

CGGWYKYW-PMeOx20-SEt
no aff.: SAW KD (Concanavalin A (ConA) [1]; Lane 1) | SAW KD (Concanavalin A (ConA) [1]; Lane 2) | SAW KD (Concanavalin A (ConA) [1]; Lane 3) | SPR KD (Concanavalin A (ConA) [2]; Lane 1 (for III: repeat (1))) | SPR KD (Concanavalin A (ConA) [2]; Lane 2 (for III: repeat (1))) | SPR KD (Concanavalin A (ConA) [2]; Lane 3 (for III: repeat (1))) | SPR KD (Concanavalin A (ConA) [2]; Lane 4 (for III: repeat (1)))
